What was measured:
PGE2 [1] = experiment: SCW mouse knee model: PGE2 levels in patellar organ culture; format: in vivo, female C57BL/6J mice
Method: The method described by Lubberts et al, 1998 was used for these studies, with some modifications. Female 8-12 week old C57BL/6J animals were fasted overnight and dosed orally with Compound A, indomethacin, or a combination of these agents suspended in methylcellulose one hour prior to a single intra-articular injection of 6 μl containing 25 μg of bacterial SCW (4.32 mg/ml rhammose; Lee Laboratories, Grayson, Ga.) in saline into the right knee joint. The left knee joint received an injection of 6 μl of saline at the same time. In other experiments, a neutralizing rat anti-mouse TNFα antibody or matched rat IgG isotype control was administered intraperitoneally two hours prior to SCW injection and Compound A or methylcellulose vehicle was orally administered one hour prior to SCW injection. Knee swelling measurements were performed 2 hours after SCW injection using a dial-gauge caliper ([…], Athol, Mass.) by measuring the difference in swelling between the right and left knee joints. Patellar organ cultures for assessment of synovial cytokine and chemokine and prostaglandin levels were prepared at 2 hours after SCW injection and established as described (Lubberts et al, 1998), using ELISA kits obtained from R&D Systems (Minneapolis, Minn.). […]

[2] = tested on: carrageenan-induced paw edema; experiment: Carrageenan-induced rat paw edema model: paw volume; format: in vivo, male Sprague-Dawley rats; conditions: oral, 1 hr before carrageenan, paw volume at 3 h; suboptimal doses: Compound A 1 mg/kg, indomethacin 0.5 mg/kg, betamethasone 0.05 mg/kg, alone or combined
Method: (§1) Carrageenan (0.05 ml of an 1% solution in saline) was injected into one hindpaw of male Sprague-Dawley rats. […] The increase in paw volume that occurred between the two timepoints was determined for each group. Rats received Compound A: [drawing 179] (see Example 405 of WO 02/083624) or standard drugs in methylcellulose vehicle by the oral route, 1 hr before carrageenan injection. The percentage by which the edematous response was inhibited was calculated by comparing the increase in paw edema of drug-treated rats to that of vehicle-treated controls. To determine neutrophil accumulation in the paws, rats were sacrificed at 3 hrs and myeloperoxidase (MPO) activity was measured from inflammatory fluid expressed from the hindpaw using a colorimetric assay (Bradley et al., 1982). PGE2 production in the hindpaw was assessed by ELISA (R&D Systems, Minneapolis, Minn.).

[3] = tested on: myeloperoxidase (MPO) activity; experiment: Carrageenan-induced rat paw edema model: MPO activity in hindpaw inflammatory fluid (neutrophil accumulation); format: in vivo, male Sprague-Dawley rats; conditions: oral, 3 hrs after carrageenan; Compound A 1 mg/kg, indomethacin 0.5 mg/kg, alone or combined
Method: Carrageenan (0.05 ml of an 1% solution in saline) was injected into one hindpaw of male Sprague-Dawley rats. Paw volumes (ml) were measured by a water displacement plethysmometer prior to and 3 h after the injection of carrageenan. The increase in paw volume that occurred between the two timepoints was determined for each group. Rats received Compound A:
[drawing 179] (see Example 405 of WO 02/083624) or standard drugs in methylcellulose vehicle by the oral route, 1 hr before carrageenan injection. The percentage by which the edematous response was inhibited was calculated by comparing the increase in paw edema of drug-treated rats to that of vehicle-treated controls. To determine neutrophil accumulation in the paws, rats were sacrificed at 3 hrs and myeloperoxidase (MPO) activity was measured from inflammatory fluid expressed from the hindpaw using a colorimetric assay (Bradley et al., 1982). PGE2 production in the hindpaw was assessed by ELISA (R&D Systems, Minneapolis, Minn.).

[4] = tested on: SCW-induced knee swelling; experiment: Streptococcal cell wall-induced mouse knee swelling model: knee swelling; format: in vivo, female C57BL/6J mice; conditions: 2 hours after SCW injection
Method: (§2) The method described by Lubberts et al, 1998 was used for these studies, with some modifications. Female 8-12 week old C57BL/6J animals were fasted overnight and dosed orally with Compound A, indomethacin, or a combination of these agents suspended in methylcellulose one hour prior to a single intra-articular injection of 6 μl containing 25 μg of bacterial SCW (4.32 mg/ml rhammose; Lee Laboratories, Grayson, Ga.) in saline into the right knee joint. The left knee joint received an injection of 6 μl of saline at the same time. In other experiments, a neutralizing rat anti-mouse TNFα antibody or matched rat IgG isotype control was administered intraperitoneally two hours prior to SCW injection and Compound A or methylcellulose vehicle was orally administered one hour prior to SCW injection. Knee swelling measurements were performed 2 hours after SCW injection using a dial-gauge caliper ([…], Athol, Mass.) by measuring the difference in swelling between the right and left knee joints. Patellar organ cultures for assessment of synovial cytokine and chemokine and prostaglandin levels were prepared at 2 hours after SCW injection and established as described (Lubberts et al, 1998), using ELISA kits obtained from R&D Systems (Minneapolis, Minn.). Statistical analysis was performed using the Student's t-test, with p<0.05 considered to be indicative of statistical significant differences between groups.

IL-1β = experiment: SCW mouse knee model: IL-1β production by ex vivo patellar organ culture; format: in vivo, female C57BL/6J mice
Method: as §2

PGE2 [5] = experiment: Carrageenan-induced rat paw edema model: PGE2 production in the hindpaw (ELISA); format: in vivo, male Sprague-Dawley rats; conditions: oral; Compound A 1 mg/kg, betamethasone 0.05 mg/kg, alone or combined
Method: as §1

[6] = indomethacin alone (2 mg/kg oral)

SMILES | inhibition of PGE2 levels in patellar organ culture (PGE2 [1]; [6]) | inhibition of paw edema [2] | inhibition of MPO activity in the hindpaw [3] | inhibition of knee swelling ([4]; indomethacin 2 mg/kg oral alone) | inhibition of IL-1β production by ex vivo patellar organ culture (IL-1β; [6]) | inhibition of paw PGE2 levels (PGE2 [5]) | inhibition of PGE2 levels in patellar organ culture (PGE2 [1]; Compound A alone at 10-25 mg/kg oral) | inhibition of knee swelling ([4]; Compound A 10 mg/kg oral, alone or with indomethacin 2 mg/kg) | inhibition of knee swelling ([4]; Compound A 25 mg/kg oral, alone or with indomethacin 2 mg/kg) | inhibition of IL-1β production by ex vivo patellar organ culture (IL-1β; Compound A 10 mg/kg oral, alone or with indomethacin) | inhibition of IL-1β production by ex vivo patellar organ culture (IL-1β; Compound A 25 mg/kg oral, alone or with indomethacin)
COc1ccc2c(c1)c(CC(=O)O)c(C)n2C(=O)c1ccc(Cl)cc1 [indomethacin, reference compound] | 89% | 0% | −58% | 42% | 11% |  |  |  |  |  | 
C[C@H]1C[C@H]2[C@@H]3CCC4=CC(=O)C=C[C@]4(C)[C@@]3(F)[C@@H](O)C[C@]2(C)[C@@]1(O)C(=O)CO [betamethasone, reference compound] |  | 32% |  |  |  | 31% |  |  |  |  | 
CC[C@@H](Nc1c(Nc2cccc(C(=O)N(C)C)c2O)c(=O)c1=O)c1ccc(C)o1 [Compound A] |  | 20% | 67% |  |  | 31% | 34-40% | 46% | 70% | 49% | 64%

From patent publication US7960433B2, “Treatment of chemokine mediated diseases” (Schering Corporation, priority 2002, dated 2011)
